Drawing on publication PMC6272230, “Uses of 3-(2-Bromoacetyl)-2H-chromen-2-one in the Synthesis of Heterocyclic Compounds Incorporating Coumarin: Synthesis, Characterization and Cytotoxicity” (Molecules, 2015), this text covers IC50 and melting point for three molecules.

Data set [1] concerns human gastric cancer (NUGC). The data set is described as follows: In vitro cytotoxicity against NUGC cells. In kind it is cell-based. As to conditions: gastric cancer, concentration producing 50% reduction in cell growth, read-out: Cytotoxicity (IC50 in nM) NUGC. On the procedure: (§1) The heterocyclic compounds, prepared in this study, were evaluated according to standard protocols for their in vitro cytotoxicity against six human cancer cell lines including cells derived from human gastric cancer (NUGC), human colon cancer (DLD1), human liver cancer (HA22T and HEPG2), nasopharyngeal carcinoma (HONE1), human breast cancer (MCF) and normal fibroblast cells (WI38). For comparison purposes, CHS 828, a pyridyl cyanoguanidine, was used as a standard antitumor drug (Figure 2). […] All the synthesized compounds were tested for their cytotoxicity against normal fibroblast cells.
(§2) Fetal bovine serum (FBS) and L-glutamine, were purchased from Gibco Invitrogen Co. (Scotland, UK). RPMI-1640 medium was purchased from Cambrex (East Rutherford, NJ, USA). Dimethyl sulfoxide (DMSO), CHS 828, penicillin, streptomycin and sulforhodamine B (SRB) were purchased from Sigma Chemical Co. (Saint Louis, MO, USA).
(§3) Cell cultures were obtained from the European Collection of Cell Cultures (ECACC, Salisbury, UK) and human gastric cancer (NUGC), human colon cancer (DLD1), human liver cancer (HA22T and HEPG2), human breast cancer (MCF), nasopharyngeal carcinoma (HONE1) and normal fibroblast cells (WI38) were kindly provided by the National Cancer Institute (NCI, Cairo, Egypt). They were grown as a monolayer and routinely maintained in RPMI-1640 medium supplemented with 5% heat inactivated FBS, 2 mM glutamine and antibiotics (penicillin 100 U/mL, streptomycin 100 µg/mL) at 37 °C in a humidified atmosphere containing 5% CO2. Exponentially growing cells were obtained by plating 1.5 × 10^5 cells/mL for the six human cancer cell lines followed by 24 h of incubation. The effect of the vehicle solvent (DMSO) on the growth of these cell lines was evaluated in all the experiments by exposing untreated control cells to the maximum concentration (0.5%) of DMSO used in each assay.

Data set [2] deals with human colon cancer (DLD1). The data set is described as follows: In vitro cytotoxicity against DLD1 cells. In kind it is cell-based. As to conditions: DLD-1, DLDI, colon cancer, concentration producing 50% reduction in cell growth, read-out: Cytotoxicity (IC50 in nM) DLDI. How it is done: as §1, §2, §3
Data set [3] concerns human liver cancer (HA22T). The data set is described as follows: In vitro cytotoxicity against HA22T cells. In kind it is cell-based. As to conditions: liver cancer, concentration producing 50% reduction in cell growth, read-out: Cytotoxicity (IC50 in nM) HA22T. How it is done:
as §1, §2, §3

The test system of data set [4] is human liver cancer (HEPG2). The data set is described as follows: In vitro cytotoxicity against HEPG2 cells. Type of data set: cell-based. As to conditions: HEPG2, liver cancer, concentration producing 50% reduction in cell growth, read-out: Cytotoxicity (IC50 in nM) HEPG2. How it is done:
as §1, §2, §3

The subject of data set [5] is nasopharyngeal carcinoma (HONE1). The data set is described as follows: In vitro cytotoxicity against HONE1 cells. In kind it is cell-based. Particulars: Homo sapiens; HONE1, nasopharyngeal carcinoma; concentration producing 50% reduction in cell growth; read-out: Cytotoxicity (IC50 in nM) HONE1. How it is done:
as §1, §2, §3

In data set [6] the test system is human breast cancer (MCF). The data set is described as follows: In vitro cytotoxicity against MCF cells. In kind it is cell-based. As to conditions: MCF, breast cancer, concentration producing 50% reduction in cell growth, read-out: Cytotoxicity (IC50 in nM) MCF. How it is done: as §1, §2, §3
The nature of data set [7]: In vitro cytotoxicity against normal fibroblast cells WI38. Type of data set: cell-based. As to conditions: human, concentration producing 50% reduction in cell growth. On the procedure:
as §1, §2, §3

By IC50 is commonly meant the concentration at which inhibition is half-maximal. The term melting point denotes the temperature of the solid-liquid transition.

As for `COc1ccc(-n2cc(-c3cc4ccccc4oc3=O)sc2=Nc2ccccc2)cc1` [Compound 5c, 3-(3-(4-Methoxyphenyl)-2-(phenylimino)-2,3-dihydrothiazol-5-yl)-2H-chromen-2-one], the melting point is 103 to 105 °C. Further, the IC50 in data set [1] was 1620 nM. Moreover, the half-maximal inhibitory concentration (IC50) in data set [2] was found to be 396 nM. For the same molecule, the IC50 in data set [3] was 274 nM. The IC50 in data set [4] was 2120 nM. In data set [5], the IC50 was found to be 670 nM. Moreover, the concentration for half-maximal inhibition (IC50) in data set [6] was determined as 1180 nM. For the same molecule, the IC50 in data set [7] turned out to be 490 nM.
In the case of `O=c1oc2ccccc2cc1-c1cn(-c2ccccc2)c(=Nc2ccccc2)s1` [Compound 5a, 3-(3-Phenyl-2-(phenylimino)-2,3-dihydrothiazol-5-yl)-2H-chromen-2-one], the melting point was 158 to 160 °C. Moreover, the 50% inhibitory concentration (IC50) in data set [1] came to 228 nM. Also, the IC50 in data set [2] was determined as 569 nM. The IC50 in data set [3] was found to be 213 nM. Also, the half-inhibitory concentration (IC50) in data set [4] stood at 1110 nM. For the same molecule, in data set [5], the IC50 was 2050 nM. Moreover, in data set [6], the IC50 turned out to be 2010 nM. Besides, in data set [7], the IC50 turned out to be 632 nM.
`N#Cc1c(N)sc(Br)c1-c1cc2ccccc2oc1=O` [Compound 4a, 2-Amino-5-bromo-4-(2-oxo-2H-chromen-3-yl)thiophene-3-carbonitrile] had a melting point of 180 to 182 °C. For the same molecule, the half-inhibitory concentration (IC50) in data set [1] came to 32 nM. For the same molecule, in data set [2], the 50% inhibitory concentration (IC50) stood at 50 nM. Also, the IC50 in data set [3] amounted to 27 nM. Besides, the 50% inhibitory concentration (IC50) in data set [4] was 221 nM. Besides, the IC50 in data set [5] was determined as 228 nM. Besides, the half-inhibitory concentration (IC50) in data set [6] is 2060 nM. This molecule also displayed a half-maximal inhibitory concentration (IC50) in data set [7] of 780 nM.
